These results are taken from ChEMBL document CHEMBL4414616, “Exhaustive Repertoire of Druggable Cavities at Protein-Protein Interfaces of Known Three-Dimensional Structure” (J Med Chem, 2019).

Structures are written as SMILES. Activity calls are given as the source filed them. No cut-off for these calls is given here.

Test [1] concerns Lactobacillus johnsonii. The test can be described thus: Inhibition of catalytic activity of His6-tagged Lactobacillus johnsonii N6.2 cinnamoyl esterase LJ0536 expressed in Escherichia coli BL21 (DE3) assessed as reduction in hydrolysis of 4-nitrophenyl butyrate in 4-nitrophenol pre-incubated for 2 hrs.
For test [2], the system named is Lactobacillus johnsonii. The test can be described thus: Inhibition of catalytic activity of His6-tagged Lactobacillus johnsonii N6.2 cinnamoyl esterase LJ0536 expressed in Escherichia coli BL21 (DE3) assessed as reduction in hydrolysis of 4-nitrophenyl butyrate in 4-nitrophenol at 400 uM in presence of 2.5 to 20 mM enzyme pre-incubated for 2 hrs.
In test [3] the test system is Lactobacillus johnsonii. Nature of the test: Non-competive inhibition of catalytic activity of His6-tagged Lactobacillus johnsonii N6.2 cinnamoyl esterase LJ0536 expressed in Escherichia coli BL21 (DE3) assessed as substrate Vmax by measuring hydrolysis of 4-nitrophenyl butyrate in 4-nitrophenol at 400 uM pre-incubated for 2 hrs (reference value: 4.094 umol/min/mg).

Usually Vmax stands for the top rate of the reaction or transport when substrate is in excess. For the compound `CC(C(=O)O)c1ccc(-c2ccccc2)c(F)c1` (stereo not drawn), in test [1], the inhibition result is “Dose-dependent effect”. Moreover, in test [2], the inhibition entry is “Active”. Further, the Vmax in test [3] was 3.7 µmol/min/mg.
